Measured values reported in ChEMBL document CHEMBL5620379, “Discovery, SAR and mechanistic studies of quinazolinone-based acetamide derivatives in experimental visceral leishmaniasis” (Eur J Med Chem, 2023).
The source made the active and inactive calls. No cut-off for these calls is given here.

What was measured:
Leishmania donovani [1] = assay: Antileishmanial activity against amastigote form of Leishmania donovani infected in BALB/c mouse assessed as inhibition of parasite growth in liver at 10 mg/kg, po measured after 1 week post treatment by geimsa staining based analysis relative to control; format: functional; parameters: scale not given: the % may be the effect or the level left; conditions: time 1 weeks
Leishmania donovani [2] = assay: Antileishmanial activity against Leishmania donovani promastigotes at 25 uM measured after 48 hrs by MTT assay relative to control; format: functional
Leishmania donovani [3] = assay: Induction of autophagy in Leishmania donovani promastigotes assessed as fold increase in Sir2 transcript level at 25 uM measured after 24 hrs by RT-PCR analysis; format: functional
Leishmania donovani [4] = assay: Antileishmanial activity against Leishmania donovani promastigotes at 25 uM measured after 12 hrs by luciferase assay relative to control; format: functional
Leishmania donovani [5] = assay: Induction of apoptosis in Leishmania donovani promastigotes assessed as appearance of disorganised mitochondrial cristae at 25 uM by transmission electron microscopy analysis; format: functional, organism-based
[6] = Renal toxicity in golden hamster assessed as effect on creatinine level at 40 mg/kg, po measured after 28 days post infection; format: organism-based, Mesocricetus auratus; conditions: in vivo, 672 h, time 28 day
Splenocyte = assay: Immunostimulatory activity in mouse splenocyte assessed as decrease in IL-10 secretion at 10 to 40 mg/kg measured after 1 week by RT-PCR analysis relative to control; format: functional; parameters: scale not given: the % may be the effect or the level left; conditions: dose 10-40 mg/kg, time 1 weeks
[7] = Renal toxicity in golden hamster assessed as effect on urea level at 40 mg/kg, po measured after 28 days post infection; format: organism-based, Mesocricetus auratus; conditions: in vivo, 672 h, time 28 day
Leishmania donovani [8] = assay: Antileishmanial activity against Leishmania donovani infected in golden hamster assessed as inhibition of parasite growth in liver at 80 mg/kg, po administered for 7 days and measured after 28 days by giemsa staining based analysis relative to control; format: functional; parameters: scale not given: the % may be the effect or the level left; conditions: time 28 day
J774 [9] = assay: Downregulation of Akt phosphorylation in mouse J774 macrophage infected with Leishmania donovani at 25 uM measured after 4 to 8 hrs by immunoblot analysis; format: functional, cell-based; conditions: time 4-8 hrs
Leishmania donovani [10] = assay: Antileishmanial activity against Leishmania donovani infected in golden hamster assessed as inhibition of parasite growth in liver at 40 mg/kg, po administered for 7 days and measured after 28 days by giemsa staining based analysis relative to control; format: functional; parameters: scale not given: the % may be the effect or the level left; conditions: time 28 day
J774 [11] = assay: Immunostimulatory activity in mouse J774 macrophage infected with Leishmania donovani assessed as fold increase in IL-12 level at 25 uM measured after 24 hrs by RT-PCR analysis; format: functional
J774 [12] = assay: Immunostimulatory activity in mouse J774 macrophage infected with Leishmania donovani assessed as decrease in IL-10 level at 25 uM measured after 24 hrs by RT-PCR analysis relative to control; format: functional; parameters: scale not given: the % may be the effect or the level left
J774 [13] = assay: Immunostimulatory activity in mouse J774 macrophage infected with Leishmania donovani promastigotes assessed as fold increase in iNOS mRNA expression at 25 uM measured after 48 hrs in presence of nitric oxide by spectrophotometer analysis; format: functional
Leishmania donovani [14] = assay: Induction of cell cycle arrest in Leishmania donovani promastigotes assessed as accumulation of cells at G2/M phase at 25 uM measured after 12 hrs by PI staining based flow cytometry analysis (reference value: 35.7%); format: functional
Leishmania donovani [15] = assay: Antileishmanial activity against Leishmania donovani infected in golden hamster assessed as inhibition of parasite growth in spleen at 80 mg/kg, po administered for 7 days and measured after 28 days by giemsa staining based analysis relative to control; format: functional; parameters: scale not given: the % may be the effect or the level left; conditions: time 28 day
[16] = Stability of the compound in stimulated gastric fluid at 10 ug/ml at pH 1.2 measured upto 120 min by HPLC analysis; format: ADME; conditions: simulated gastric fluid, at 10 µg/mL, read-out: Stability
Leishmania donovani [17] = assay: Antileishmanial activity against amastigote form of Leishmania donovani infected in BALB/c mouse assessed as inhibition of parasite growth in liver at 40 mg/kg, po measured after 1 week post treatment by geimsa staining based analysis relative to control; format: functional; parameters: scale not given: the % may be the effect or the level left; conditions: time 1 weeks
Leishmania donovani [18] = assay: Induction of autophagy in Leishmania donovani promastigotes assessed as fold induction of ATG5 gene at 25 uM measured after 24 hrs by RT-PCR analysis; format: functional
J774 [19] = assay: Downregulation of CREB phosphorylation level at Ser133 residue in mouse J774 macrophage infected with Leishmania donovani at 25 uM measured after 12 to 16 hrs by immunoblot analysis; format: functional, cell-based; conditions: time 12-16 hrs
Leishmania donovani [20] = assay: Induction of autophagy in Leishmania donovani promastigotes assessed as increase in number of MDC-positive parasite by measuring MDC-labelled vacuoles at 25 uM measured after 24 hrs by MDC staining based analysis; format: functional, organism-based
Leishmania donovani [21] = assay: Antileishmanial activity against amastigote form of Leishmania donovani infected in BALB/c mouse assessed as inhibition of parasite growth in spleen at 10 mg/kg, po measured after 1 week post treatment by geimsa staining based analysis relative to control; format: functional; parameters: scale not given: the % may be the effect or the level left; conditions: time 1 weeks
[22] = Toxicity in BALB/c mouse assessed as effect on skin texture at 10 to 40 mg/kg, po measured after 1 week; format: organism-based; conditions: in vivo, 168 h, dose 10-40 mg/kg, time 1 weeks
J774 [23] = assay: Cytotoxicity against mouse J774 macrophage incubated for 72 hrs by MTT assay; format: functional
Leishmania donovani [24] = assay: Induction of cell cycle arrest in Leishmania donovani promastigotes assessed as accumulation of cells at S phase at 25 uM measured after 12 hrs by PI staining based flow cytometry analysis (reference value: 28.6%); format: functional
Leishmania donovani [25] = assay: Induction of cell cycle arrest in Leishmania donovani promastigotes assessed as accumulation of cells at G2/M phase at 25 uM measured after 4 hrs by PI staining based flow cytometry analysis (reference value: 35.7%); format: functional

For Cn1c(-c2ccc(OCC(=O)Nc3ccccn3)cc2)nc2ccccc2c1=O, the Activity (Leishmania donovani [1]) was >50%, the Activity (Leishmania donovani [2]) was 85.64% and the “fold change (FC)” value (Leishmania donovani [3]) was 4.95. For the same compound, the Activity (Leishmania donovani [4]) was 11.8%, the Activity (Leishmania donovani [5]) was “Active” and the Activity [6] was “Non-Toxic”. The Activity (Splenocyte) was 47.69%, the Activity [7] was “Non-Toxic” and the Activity (Leishmania donovani [8]) was 86.5%. The Activity (J774 [9]) was “Active”, the Activity (Leishmania donovani [10]) was 66.7% and the “fold change (FC)” value (J774 [11]) was 3.4. For the same compound, the Activity (J774 [12]) was 72.23%, the “fold change (FC)” value (J774 [13]) was 4.87 and the Activity (Leishmania donovani [14]) was 18.7%. For the same compound, the Activity (Leishmania donovani [15]) was 85.8%, the remaining at 2 h, 10 ug/ml [16] was 94.5% and the Activity (Leishmania donovani [17]) was 85.4%. For the same compound, the “fold change (FC)” value (Leishmania donovani [18]) was 2.84, the Activity (J774 [19]) was “Active” and the Activity (Leishmania donovani [20]) was “Active”. For the same compound, the Activity (Leishmania donovani [21]) was >50%, the Activity [22] was “Non-Toxic” and the CC50 (J774 [23]) was 65 µM. The Activity (Leishmania donovani [24]) was 15.5% and the Activity (Leishmania donovani [25]) was 30.6%.
